Measured values from PMC10910532, “Structure of the GDP-bound state of the SRP GTPase FlhF” (Acta Crystallographica. Section F, Structural Biology …, 2024).

Target: T1, NG-FlhF (Shewanella putrefaciens, UniProt A4Y8J9)
T1 construct: gene Sputcn32_2561; NG domain, residues 174-460, C-terminal His6 tag, recombinant from E. coli BL21(DE3), monomer; residues 183-437 modelled
T1 sequence (A4Y8J9 174-460): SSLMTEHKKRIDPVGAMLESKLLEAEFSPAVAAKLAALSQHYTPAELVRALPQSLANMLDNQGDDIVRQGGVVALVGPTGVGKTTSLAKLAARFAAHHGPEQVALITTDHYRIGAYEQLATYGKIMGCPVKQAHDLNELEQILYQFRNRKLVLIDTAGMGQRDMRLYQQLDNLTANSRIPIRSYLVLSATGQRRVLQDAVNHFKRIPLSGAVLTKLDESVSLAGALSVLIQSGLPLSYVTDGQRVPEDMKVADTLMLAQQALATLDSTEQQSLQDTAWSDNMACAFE
Test: X-ray crystal structure
Assay type: binding
Settings: 5 mM GDP pre-incubated with protein; crystallised at pH 5.0, 20 °C; nucleotide site, no Mg2+ in active site

SMILES: Nc1nc2c(ncn2[C@@H]2O[C@H](COP(=O)(O)OP(=O)(O)O)[C@@H](O)[C@H]2O)c(=O)[nH]1 [GDP]
- X-ray crystal structure: Density which could unambiguously be assigned to GDP was found in the active center
